Results reported in ChEMBL document CHEMBL2417394, “Exquisite selectivity for human toll-like receptor 8 in substituted furo[2,3-c]quinolines” (J Med Chem, 2013).
Active and inactive are the calls of the source.

How the values were obtained:
[1] = molecular target: T1, Nucleotide-binding oligomerization domain-containing protein 1 (Homo sapiens) (UniProt Q9Y239); experiment: Antagonist activity at NOD1 (unknown origin)
T1 sequence (whole entry): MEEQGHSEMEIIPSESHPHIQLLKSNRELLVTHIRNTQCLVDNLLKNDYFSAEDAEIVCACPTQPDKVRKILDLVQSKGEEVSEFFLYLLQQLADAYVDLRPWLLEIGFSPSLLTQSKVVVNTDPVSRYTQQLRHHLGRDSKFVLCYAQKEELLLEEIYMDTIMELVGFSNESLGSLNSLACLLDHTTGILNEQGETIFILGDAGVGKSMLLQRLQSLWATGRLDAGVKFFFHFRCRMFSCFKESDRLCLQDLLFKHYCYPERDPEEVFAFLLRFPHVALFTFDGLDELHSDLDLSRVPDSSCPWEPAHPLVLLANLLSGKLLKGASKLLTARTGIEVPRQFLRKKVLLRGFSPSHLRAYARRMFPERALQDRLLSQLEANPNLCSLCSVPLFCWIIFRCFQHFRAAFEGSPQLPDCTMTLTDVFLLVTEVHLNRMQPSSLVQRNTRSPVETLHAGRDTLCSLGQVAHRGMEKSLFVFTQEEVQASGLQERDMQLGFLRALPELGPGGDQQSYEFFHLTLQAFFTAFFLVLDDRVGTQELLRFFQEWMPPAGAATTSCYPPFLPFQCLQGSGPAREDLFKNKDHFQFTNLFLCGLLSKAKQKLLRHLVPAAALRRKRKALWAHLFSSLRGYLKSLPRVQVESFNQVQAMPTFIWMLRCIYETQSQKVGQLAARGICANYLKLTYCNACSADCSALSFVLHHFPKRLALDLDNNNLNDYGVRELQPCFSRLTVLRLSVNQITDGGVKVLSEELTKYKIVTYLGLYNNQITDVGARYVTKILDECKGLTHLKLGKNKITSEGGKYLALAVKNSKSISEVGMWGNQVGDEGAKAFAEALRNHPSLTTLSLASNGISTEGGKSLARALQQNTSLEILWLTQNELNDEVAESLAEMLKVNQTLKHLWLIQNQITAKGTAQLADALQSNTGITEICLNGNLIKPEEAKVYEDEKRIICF

[2] = molecular target: T2, Toll-like receptor 9 (Homo sapiens) (UniProt Q9NR96); experiment: Antagonist activity at human TLR9 expressed in HEK293 cells co-transfected with MD2 and sAP assessed as inhibition of NF-kappaB activity by reporter gene assay; assay type: cell-based
T2 sequence (whole entry): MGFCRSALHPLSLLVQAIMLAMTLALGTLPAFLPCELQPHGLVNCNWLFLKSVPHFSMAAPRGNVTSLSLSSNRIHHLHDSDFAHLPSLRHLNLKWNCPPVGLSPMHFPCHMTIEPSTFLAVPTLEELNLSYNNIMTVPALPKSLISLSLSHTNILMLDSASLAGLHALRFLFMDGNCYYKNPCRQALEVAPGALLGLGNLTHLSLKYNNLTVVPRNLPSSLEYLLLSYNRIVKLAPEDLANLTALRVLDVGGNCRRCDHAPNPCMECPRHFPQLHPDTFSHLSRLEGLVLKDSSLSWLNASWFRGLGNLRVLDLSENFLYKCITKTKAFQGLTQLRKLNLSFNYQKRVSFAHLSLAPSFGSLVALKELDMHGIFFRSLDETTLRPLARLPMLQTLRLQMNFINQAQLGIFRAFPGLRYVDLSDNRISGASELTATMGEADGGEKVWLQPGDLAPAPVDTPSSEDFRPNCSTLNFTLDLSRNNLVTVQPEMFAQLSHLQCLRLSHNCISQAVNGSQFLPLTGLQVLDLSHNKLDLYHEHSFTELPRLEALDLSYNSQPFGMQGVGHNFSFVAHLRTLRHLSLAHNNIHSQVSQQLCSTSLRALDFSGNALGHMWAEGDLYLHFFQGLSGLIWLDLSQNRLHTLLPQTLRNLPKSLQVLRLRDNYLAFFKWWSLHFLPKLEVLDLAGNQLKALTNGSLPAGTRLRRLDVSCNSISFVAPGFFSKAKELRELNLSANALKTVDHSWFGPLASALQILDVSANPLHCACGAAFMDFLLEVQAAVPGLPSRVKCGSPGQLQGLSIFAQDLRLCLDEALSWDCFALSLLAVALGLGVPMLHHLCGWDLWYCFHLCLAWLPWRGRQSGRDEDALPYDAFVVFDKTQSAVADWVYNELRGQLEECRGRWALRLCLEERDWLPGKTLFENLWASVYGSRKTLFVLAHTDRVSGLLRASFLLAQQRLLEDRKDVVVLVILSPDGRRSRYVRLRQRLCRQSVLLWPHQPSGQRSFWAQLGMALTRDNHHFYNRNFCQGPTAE

[3] = molecular target: Toll-like receptor 2 (Homo sapiens) (UniProt O60603); experiment: Antagonist activity at human TLR2 expressed in HEK293 cells co-transfected with MD2 and sAP assessed as inhibition of NF-kappaB activity by reporter gene assay; assay type: cell-based

Measured: inhibition

Sequence of Toll-like receptor 2 (Homo sapiens) (O60603 whole entry): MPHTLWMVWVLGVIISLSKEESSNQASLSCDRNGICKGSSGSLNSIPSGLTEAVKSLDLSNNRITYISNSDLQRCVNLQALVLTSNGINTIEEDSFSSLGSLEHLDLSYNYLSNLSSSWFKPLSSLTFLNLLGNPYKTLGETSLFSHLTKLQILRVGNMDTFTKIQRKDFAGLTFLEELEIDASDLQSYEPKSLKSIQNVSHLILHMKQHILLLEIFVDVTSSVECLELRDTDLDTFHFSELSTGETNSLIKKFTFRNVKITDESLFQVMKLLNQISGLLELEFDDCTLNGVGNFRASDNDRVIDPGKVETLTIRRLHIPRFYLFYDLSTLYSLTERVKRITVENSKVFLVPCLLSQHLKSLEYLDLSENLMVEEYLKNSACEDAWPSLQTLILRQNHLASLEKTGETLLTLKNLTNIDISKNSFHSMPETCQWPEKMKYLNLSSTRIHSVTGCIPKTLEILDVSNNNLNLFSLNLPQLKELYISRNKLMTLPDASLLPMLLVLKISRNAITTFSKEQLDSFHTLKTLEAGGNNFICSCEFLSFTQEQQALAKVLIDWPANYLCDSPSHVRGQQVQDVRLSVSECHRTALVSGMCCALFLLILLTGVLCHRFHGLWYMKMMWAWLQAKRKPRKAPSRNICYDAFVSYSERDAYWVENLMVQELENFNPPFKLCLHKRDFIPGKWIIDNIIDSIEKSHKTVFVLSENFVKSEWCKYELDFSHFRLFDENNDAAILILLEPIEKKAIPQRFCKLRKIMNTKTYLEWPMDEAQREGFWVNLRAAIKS

CCCc1cc2c(N)nc3ccccc3c2o1
inactive: [1] | [2] | [3]

CCCCc1cc2c(N)nc3ccccc3c2o1
inactive: [1] | [2] | [3]

Nc1nc2ccccc2c2oc(-c3ccccc3)cc12
inactive: [1] | [2] | [3]

CCCCc1cc2c(nc(N)c3ccccc32)o1
inactive: [1] | [2] | [3]
